Key:
[1] = test system: PPARα target genes in HepG2 cells; assay: qPCR gene expression in HepG2 hepatocytes, with PPARα siRNA knockdown; conditions: 300 µg/ml CFE or 10 µM GW7647, 24 h, vs vehicle
Protocol: Specificity of PPARα-driven modulation was investigated in siRNA-mediated knockdown in human hepatocytes and subsequent real-time PCR detection. Therefore, HepG2 cells were seeded in 24-well-plates (Nunc) at a density of 40,000 cells per well.

[2] = target: T1, PPARα (Homo sapiens, UniProt Q07869); assay: Reporter gene assay of transcriptional activation, PPARα (HEK 293, GAL4-PPAR-LBD); assay type: cell-based; conditions: relative to reference compound GW7647
T1 construct: HEK 293 cells were stably expressing a GAL4-PPAR-LBD fusion protein and an UAS-beta-lactamase reporter gene; host or cells: HEK 293
T1 sequence (Q07869 239-466 limits assumed): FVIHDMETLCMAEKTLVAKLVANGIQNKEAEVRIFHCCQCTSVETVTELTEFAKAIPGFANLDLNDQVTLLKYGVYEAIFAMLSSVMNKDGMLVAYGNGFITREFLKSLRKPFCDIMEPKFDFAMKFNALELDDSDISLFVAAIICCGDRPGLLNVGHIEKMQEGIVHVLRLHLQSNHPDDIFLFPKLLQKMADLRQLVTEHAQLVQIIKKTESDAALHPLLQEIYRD
Protocol: Transcriptional activation of PPARs was assessed in cellular reporter gene assays according to the manufacturer’s protocols (GeneBLAzer PPAR alpha/gamma/delta Assay, Life Technologies). Briefly, HEK 293 cells were stably expressing a GAL4-PPAR-LBD fusion protein and an UAS-beta-lactamase reporter gene. Cells were incubated with different concentrations of compounds resulting in differential expression of the reporter gene. Binding and activation assays were measured with the POLARstar Omega (BMG LABTECH, Offenburg, Germany). Data were fitted using GraphPad Prism 5.0 according equation: Y=Bottom + (Top-Bottom)/(1+10^((LogEC50-X)*HillSlope)) with variable Hill slope.

[3] = test system: HFD-fed C57BL/6 mice; assay: Therapy study in insulin-resistant obese HFD-fed (DIO) mice; conditions: CFE 200 mg/kg/d or RGZ 4 mg/kg/d
Protocol: Animal studies were approved by the State Office of Health and Social Affairs (Berlin, Germany) and were carried out according internationally approved guidelines. All animals were singly housed under temperature-, humidity- and light-controlled conditions (22°C, 50% humidity, 12 h light/12 h dark cycle). Mice had ad libitum access to food and water. Mice, food and water were weighed in a regularly to determine changes in body weight and food and water intake.
For the therapy study, we subjected male 6-week old C57BL/6 mice to an HFD for 18 weeks to induce obesity and insulin resistance. Prior to compound treatment, mice were weighed and distributed uniformly to three groups (n=9-14 each). […] After 2 weeks of treatment mice were subjected to an oral glucose tolerance test (OGTT). […]
Mice were fasted overnight before being subjected to an oral glucose (Sigma-Aldrich) dose of 2 g/kg body weight. Blood was taken from the tail vein at the indicated time points and blood glucose was analysed in a Hemocue B-Glucose analyser (Hemocue, Großostheim, Germany). […]
Whole blood glucose was analysed in a Hemocue B-Glucose analyser. Plasma glucose was measured using the Amplex Red Glucose Assay Kit (Life Technologies). Plasma triacylglycerol, NEFA, HDL and LDL/VLDL cholesterol and plasma alanine transaminase (ALT) were determined with colorimetric quantification kits (Biovision, Milpitas, CA, USA). […]

## CC(C)(Sc1ccc(CCN(CCCCC2CCCCC2)C(=O)NC2CCCCC2)cc1)C(=O)O [GW7647]
[1]
  Expression of PPARα target genes (ACOX2, CPT 2, ECH1, HMGCS2): significantly induced expression
[2]
  Efficacy PPARα: 100%

## CN(CCOc1ccc(CC2SC(=O)NC2=O)cc1)c1ccccn1 (stereo not shown) [RGZ, rosiglitazone]
[3]; 6 weeks, qPCR
  Gene expression of inflammatory markers in WAT: remained largely unchanged
[3]; after 2 weeks
  HOMA-IR insulin resistance, decrease: 67%

— paper PMC3827197, “Antidiabetic Effects of Chamomile Flowers Extract in Obese Mice through Transcriptional Stimulation of Nutrient Sensors of the Peroxisome Proliferator-Activated Receptor (PPAR) Family” (PLoS ONE, 2013)
